We go through 9 compounds from PubChem BioAssay (NCI).

Among the test systems are A549 NSCLC; MOLT-4 leukemia; NCI/ADR-RES ovarian; SW-620 colon; PC-3 prostate; SN12C renal; SF-295 CNS; MALME-3M melanoma; HS 578T breast; NCI-H460 lung.
Test in all cases: DTP human tumour cell line panel, 48 h

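Following 48 hours of exposure in 96-well plates, responses at five concentrations were used to interpolate endpoints linearly. GI50: concentration for 50% inhibition of growth. TGI denotes the concentration required for complete inhibition of growth.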

Usually TGI stands for the concentration at which net growth stops. A lower TGI goes with greater sensitivity of the cells. Take `Oc1ccc2ccccc2c1N=Nc1ccc(Cl)cc1`: the concentration for total growth inhibition (TGI) in the experiment on A549 NSCLC, in the experiment with MOLT-4 leukemia, in the experiment on NCI/ADR-RES ovarian, with SW-620 colon, with PC-3 prostate and with SN12C renal was > 100 µM each time. The concentration for total growth inhibition (TGI) with SF-295 CNS, in the experiment with MALME-3M melanoma and with HS 578T breast was > 100 µM in each case.

The GI50 is the concentration giving 50% growth inhibition. Regarding `Fc1ccc([C@@H]2CCNC[C@H]2COc2ccc3c(c2)OCO3)cc1`, the GI50 is 14.6 µM in the experiment on A549 NSCLC; 14 µM in the experiment on NCI/ADR-RES ovarian; 10.6 µM with SW-620 colon; 3.83 µM in the experiment with PC-3 prostate; 5.79 µM with SN12C renal; 5.51 µM with NCI-H460 lung. The GI50 in the experiment with SF-295 CNS was 4.07 µM; in the experiment on MALME-3M melanoma, 2680 nM; with HS 578T breast, 19.8 µM. In addition, the TGI came to 29 µM with A549 NSCLC; 30 µM in the experiment on NCI/ADR-RES ovarian; 24.2 µM in the experiment on SW-620 colon; 17.2 µM in the experiment with PC-3 prostate; 18.9 µM in the experiment on SN12C renal; 18.6 µM in the experiment on NCI-H460 lung. The concentration for total growth inhibition (TGI) was found to be 17.1 µM in the experiment on SF-295 CNS, 6.12 µM in the experiment on MALME-3M melanoma and 62.3 µM in the experiment with HS 578T breast.

In the case of `COc1ccc(-c2nc(-c3ccccn3)c(-c3ccccn3)n2CC(C)C)cc1OC1CCCC1`, the GI50 in the experiment on A549 NSCLC is 9.02 µM; in the experiment on MOLT-4 leukemia it was 18 µM; in the experiment on NCI/ADR-RES ovarian it was 6.96 µM; in the experiment on SW-620 colon, 42 µM; in the experiment on PC-3 prostate, 11.1 µM; in the experiment on SN12C renal it was 24.5 µM. The figures for the GI50 with NCI-H460 lung, in the experiment with SF-295 CNS and in the experiment with HS 578T breast were 32.1 µM, 9.56 µM and 9.71 µM, respectively. Besides, the total growth inhibition concentration (TGI) in the experiment with A549 NSCLC was 65.1 µM; in the experiment with MOLT-4 leukemia, 61.6 µM; in the experiment with NCI/ADR-RES ovarian, > 165 µM; with SW-620 colon, > 165 µM; with PC-3 prostate, 83.8 µM; in the experiment on SN12C renal, > 165 µM. For the same compound, the values for the TGI with NCI-H460 lung, in the experiment with SF-295 CNS and with HS 578T breast were 99.7 µM, 106 µM and 79.4 µM, respectively.

As for `O=C1CC(c2ccsc2)c2snc(-c3ccc(Cl)cc3)c2N1` (stereo not given), the GI50 is 0.626 µM in the experiment on A549 NSCLC; 0.364 µM in the experiment on NCI/ADR-RES ovarian; 0.429 µM in the experiment on SW-620 colon; 2.05 µM in the experiment on PC-3 prostate; 3.77 µM in the experiment on SN12C renal; 0.581 µM in the experiment with NCI-H460 lung. Moreover, the results for the GI50 with SF-295 CNS, in the experiment with MALME-3M melanoma and with HS 578T breast were 1.87 µM, 2720 nM and 2.59 µM, respectively. Besides, the TGI was > 100 µM in the experiment with A549 NSCLC; 2.37 µM with NCI/ADR-RES ovarian; > 100 µM in the experiment on SW-620 colon; > 100 µM with PC-3 prostate; > 100 µM with SN12C renal; > 100 µM in the experiment with NCI-H460 lung. For the same compound, the figures for the concentration for total growth inhibition (TGI) with SF-295 CNS, in the experiment on MALME-3M melanoma and in the experiment on HS 578T breast were 19.7 µM, > 100 µM and > 100 µM, respectively.

As to `O=C(Cc1csc2nc(-c3ccc(Br)cc3)cn12)N/N=C/c1ccc(Cl)cc1Cl`, the GI50 in the experiment with A549 NSCLC was 16.8 µM; in the experiment on NCI/ADR-RES ovarian, 17.2 µM; with SW-620 colon, 23 µM; with PC-3 prostate it was 30.2 µM; with SN12C renal it was 84.7 µM; in the experiment on NCI-H460 lung, > 100 µM. In addition, the GI50 in the experiment with SF-295 CNS is 34.7 µM; in the experiment with HS 578T breast, 31.8 µM. For the same compound, the TGI with A549 NSCLC is 37.5 µM; in the experiment with MOLT-4 leukemia it was 26.3 µM; with NCI/ADR-RES ovarian, 52.3 µM; in the experiment on SW-620 colon it was 60.2 µM; with PC-3 prostate, > 100 µM; in the experiment with SN12C renal, > 100 µM. Further, the TGI in the experiment with NCI-H460 lung is > 100 µM; in the experiment with SF-295 CNS, > 100 µM; in the experiment with HS 578T breast it was 89.1 µM.

As to `COc1cnc2c(c1)C(=O)c1c-2n(CCCNCCN2CCOCC2)c(=O)c2cc([N+](=O)[O-])ccc12`, the GI50 is 0.0335 µM in the experiment on MOLT-4 leukemia; 0.125 µM with NCI/ADR-RES ovarian; 0.128 µM in the experiment with SW-620 colon; 0.568 µM in the experiment with PC-3 prostate; 0.0795 µM in the experiment with SN12C renal; 0.0411 µM in the experiment on NCI-H460 lung. Moreover, the figures for the concentration for 50% growth inhibition (GI50) in the experiment on SF-295 CNS, in the experiment on MALME-3M melanoma and in the experiment with HS 578T breast were 0.0735 µM, 340 nM and 3.85 µM, respectively. Further, the concentration for total growth inhibition (TGI) with MOLT-4 leukemia came to 0.269 µM; in the experiment on NCI/ADR-RES ovarian, 1.45 µM; in the experiment on SW-620 colon, 8.68 µM; in the experiment with PC-3 prostate, 13 µM; with SN12C renal it was 4.59 µM; with NCI-H460 lung, 1.03 µM. The concentration for total growth inhibition (TGI) was found to be 0.964 µM in the experiment with SF-295 CNS, 2.86 µM in the experiment on MALME-3M melanoma and 26.9 µM in the experiment on HS 578T breast.

Regarding `CN(C)c1ccc2cc3ccc(N(C)C)cc3nc2c1`, the TGI came to 7.49 µM with A549 NSCLC; 5.06 µM with NCI/ADR-RES ovarian; 9.48 µM in the experiment with PC-3 prostate; 7.28 µM in the experiment on SN12C renal; 1.99 µM in the experiment with NCI-H460 lung; 15.2 µM in the experiment on SF-295 CNS. Further, the TGI in the experiment on MALME-3M melanoma was 10.1 µM; with HS 578T breast it was 10.7 µM.

As to `O=C(O)c1cn(C2CC2)c2cc(N3CCNCC3)c(F)cc2c1=O`, the GI50 with A549 NSCLC, with NCI/ADR-RES ovarian, in the experiment on SW-620 colon, in the experiment on PC-3 prostate, in the experiment with SN12C renal and in the experiment with NCI-H460 lung was > 100 µM throughout. The figures for the GI50 in the experiment on MALME-3M melanoma and in the experiment on HS 578T breast were 74600 nM and 42.3 µM, respectively. In addition, the concentration for total growth inhibition (TGI) in the experiment with A549 NSCLC, in the experiment on NCI/ADR-RES ovarian, with SW-620 colon, with PC-3 prostate, with SN12C renal and in the experiment with NCI-H460 lung was > 100 µM each time. The TGI in the experiment on MALME-3M melanoma and in the experiment with HS 578T breast was > 100 µM each time.

As to `CC(=O)Nc1ccc(-c2csc(Nc3cccc(-c4csc(-c5ccccc5)n4)c3)n2)cc1`, the GI50 with A549 NSCLC was 15.3 µM; with MOLT-4 leukemia it was > 50 µM; in the experiment with NCI/ADR-RES ovarian, 17.5 µM; in the experiment on SW-620 colon, > 50 µM; with PC-3 prostate, 14.7 µM; in the experiment on SN12C renal it was 8.2 µM. In addition, the GI50 with NCI-H460 lung was 18.8 µM; in the experiment on SF-295 CNS it was 14.7 µM; in the experiment on HS 578T breast, 37.2 µM. The total growth inhibition concentration (TGI) was > 50 µM in the experiment on A549 NSCLC; > 50 µM in the experiment with MOLT-4 leukemia; > 50 µM in the experiment on NCI/ADR-RES ovarian; > 50 µM with SW-620 colon; > 50 µM in the experiment on PC-3 prostate; 27.6 µM in the experiment on SN12C renal. Besides, the TGI in the experiment with NCI-H460 lung, in the experiment with SF-295 CNS and in the experiment with HS 578T breast was > 50 µM each time.
